From patent publication US20230278972A1, “SUBSTITUTED HALOALKYL SULFONANILIDE HERBICIDES” (FMC Corporation, priority 2020, published 2023)

Assays:
Type in all cases: in vivo
[1] = system: barnyardgrass (Echinochloa crus-galli); assay: Test A preemergence, barnyardgrass; details: Preemergence, 0 to 100 scale (0 no effect, 100 complete control)
Outline: (§1)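 Compounds in non-phytotoxic solvent with surfactant. Soil: loam/sand. Preemergence via directed soil spray after seeding; postemergence on seedlings 2–10 cm, one- to two-leaf.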

corn (Zea mays) = assay: Test A postemergence, corn; details: Postemergence, 0 to 100 scale (0 no effect, 100 complete control); for Plant response rating, Corn: 125 g ai/ha; for Corn plant response rating: 500 g ai/ha, visual injury vs untreated controls after approx. 10 days
Outline: as §1

[2] = system: Foxtail, Giant (giant foxtail, Setaria faberi); assay: Test A preemergence, Foxtail, Giant; details: Preemergence; for Plant response rating, Foxtail, Giant: 0 to 100 scale (0 no effect, 100 complete control); for Foxtail, Giant plant response rating: visual injury on 0 to 100 scale (0 no effect, 100 complete control), approximately 10 days
Outline: as §1

kochia (Bassia scoparia) [3] = assay: Test A preemergence, kochia; details: Preemergence; for Plant response rating, Kochia: 0 to 100 scale (0 no effect, 100 complete control); for Kochia plant response rating: visual injury on 0 to 100 scale (0 no effect, 100 complete control), approximately 10 days
Outline: as §1

[4] = system: Ryegrass, Italian (Italian ryegrass, Lolium multiflorum); assay: Test A postemergence, Ryegrass, Italian; details: Postemergence, 0 to 100 scale (0 no effect, 100 complete control); for Plant response rating, Ryegrass, Italian: 125 g ai/ha; for Ryegrass, Italian plant response rating: 500 g ai/ha, visual injury vs untreated controls after approx. 10 days
Outline: as §1

[5] = system: ragweed (common ragweed, Ambrosia artemisiifolia); assay: Test A postemergence, ragweed; details: Postemergence, 0 to 100 scale (0 no effect, 100 complete control); for Plant response rating, Ragweed: 125 g ai/ha; for Ragweed plant response rating: 500 g ai/ha, visual injury vs untreated controls after approx. 10 days
Outline: as §1

[6] = system: pigweed (Amaranthus retroflexus); assay: Test A postemergence, pigweed; details: Postemergence, 0 to 100 scale (0 no effect, 100 complete control); for Plant response rating, Pigweed: 125 g ai/ha; for Pigweed plant response rating: 500 g ai/ha, visual injury vs untreated controls after approx. 10 days
Outline: as §1

[7] = system: Foxtail, Giant (giant foxtail, Setaria faberi); assay: Test A postemergence, Foxtail, Giant; details: Postemergence, 0 to 100 scale (0 no effect, 100 complete control); for Plant response rating, Foxtail, Giant: 125 g ai/ha; for Foxtail, Giant plant response rating: 500 g ai/ha, visual injury vs untreated controls after approx. 10 days
Outline: as §1

[8] = system: ragweed (common ragweed, Ambrosia artemisiifolia); assay: Test A preemergence, ragweed; details: Preemergence; for Plant response rating, Ragweed: 0 to 100 scale (0 no effect, 100 complete control); for Ragweed plant response rating: visual injury on 0 to 100 scale (0 no effect, 100 complete control), approximately 10 days
Outline: as §1

[9] = system: galium (catchweed bedstraw, Galium aparine); assay: Test A postemergence, galium; details: Postemergence, 0 to 100 scale (0 no effect, 100 complete control); for Plant response rating, Galium: 125 g ai/ha; for Galium plant response rating: 500 g ai/ha, visual injury vs untreated controls after approx. 10 days
Outline: (§2)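 Preemergence: seeded pots of loam plus sand received a directed soil spray. Postemergence: seedlings at one to two leaves, 2 to 10 cm high, were oversprayed. Each compound was formulated in a non-phytotoxic solvent mix that included a surfactant.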

kochia (Bassia scoparia) [10] = assay: Test A postemergence, kochia; details: Postemergence, 0 to 100 scale (0 no effect, 100 complete control); for Plant response rating, Kochia: 125 g ai/ha; for Kochia plant response rating: 500 g ai/ha, visual injury vs untreated controls after approx. 10 days
Outline: as §1

[11] = system: Ryegrass, Italian (Italian ryegrass, Lolium multiflorum); assay: Test A preemergence, Ryegrass, Italian; details: Preemergence; for Plant response rating, Ryegrass, Italian: 0 to 100 scale (0 no effect, 100 complete control); for Ryegrass, Italian plant response rating: visual injury on 0 to 100 scale (0 no effect, 100 complete control), approximately 10 days
Outline: as §1

[12] = system: wheat (Triticum aestivum); assay: Test A postemergence, wheat; details: Postemergence, 0 to 100 scale (0 no effect, 100 complete control); for Plant response rating, Wheat: 125 g ai/ha; for Wheat plant response rating: 500 g ai/ha, visual injury vs untreated controls after approx. 10 days
Outline: as §2

[13] = system: pigweed (Amaranthus retroflexus); assay: Test A preemergence, pigweed; details: for Plant response rating, Pigweed: 0 to 100 scale (0 no effect, 100 complete control); for Pigweed plant response rating: visual injury on 0 to 100 scale (0 no effect, 100 complete control), approximately 10 days
Source text: Seeds of plant species selected from barnyardgrass (Echinochloa crus-galli), kochia (Bassia scoparia), ragweed (common ragweed, Ambrosia artemisiifolia), Ryegrass, Italian (Italian ryegrass, Lolium multiflorum), Foxtail, Giant (giant foxtail, Setaria faberi), and pigweed (Amaranthus retroflexus) were planted into a blend of loam soil and sand and treated preemergence with a directed soil spray using test chemicals formulated in a non-phytotoxic solvent mixture which included a surfactant. At the same time, plants selected from these weed species and also wheat (Triticum aestivum), corn (Zea mays), blackgrass (Alopecurus myosuroides), and galium (catchweed bedstraw, Galium aparine) were planted in pots containing the same blend of loam soil and sand and treated with postemergence applications of test chemicals formulated in the same manner. Plants ranged in height from 2 to 10 cm and were in the one- to two-leaf stage for the postemergence treatment. […] A dash (-) response means no test result.

[14] = system: blackgrass (Alopecurus myosuroides); assay: Test A postemergence, blackgrass; details: Postemergence, 0 to 100 scale (0 no effect, 100 complete control); for Plant response rating, Blackgrass: 125 g ai/ha; for Blackgrass plant response rating: 500 g ai/ha, visual injury vs untreated controls after approx. 10 days
Outline: as §1

[15] = 125 g ai/ha, visual injury, approx. 10 days

| Structure (SMILES) | Plant response rating, Barnyardgrass [1, 15] | Plant response rating, Barnyardgrass ([1]; 500 g ai/ha) | Plant response rating, Corn (corn (Zea mays)) | Corn plant response rating (corn (Zea mays)) | Plant response rating, Foxtail, Giant [2, 15] | Plant response rating, Kochia (kochia (Bassia scoparia) [3]; [15]) | Plant response rating, Ryegrass, Italian [4] | Ryegrass, Italian plant response rating [4] | Plant response rating, Ragweed [5] | Ragweed plant response rating [5] | Plant response rating, Pigweed [6] | Pigweed plant response rating [6] | Plant response rating, Foxtail, Giant [7] | Foxtail, Giant plant response rating [7] | Plant response rating, Ragweed [8, 15] | Plant response rating, Galium [9] | Galium plant response rating [9] | Plant response rating, Kochia (kochia (Bassia scoparia) [10]) | Kochia plant response rating (kochia (Bassia scoparia) [10]) | Plant response rating, Ryegrass, Italian [11, 15] | further results |
| --- | --- | --- | --- | --- | --- | --- | --- | --- | --- | --- | --- | --- | --- | --- | --- | --- | --- | --- | --- | --- | --- |
| Cc1cc(Cl)c(NS(=O)(=O)C(F)(F)F)cc1C(=O)N1CCC(Cl)CC1 [Compound 224] | 70 | 100 | 10 | 60 | 90 | 0 | 30 | 60 | 50 | 90 | 60 | 100 | 30 | 70 | 50 | 90 | 90 | 50 | 70 | 50 | Plant response rating, Foxtail, Giant ([2]; 500 g ai/ha): 100; Plant response rating, Kochia (kochia (Bassia scoparia) [3]; 500 g ai/ha): 90; Plant response rating, Ragweed ([8]; 500 g ai/ha): 80; Plant response rating, Ryegrass, Italian ([11]; 500 g ai/ha): 100; Plant response rating, Wheat [12]: 30; Wheat plant response rating [12]: 70; Plant response rating, Pigweed [13, 15]: 100; Plant response rating, Pigweed ([13]; 500 g ai/ha): 100; Plant response rating, Blackgrass [14]: 0; Blackgrass plant response rating [14]: 40 |
| Cc1cc(C)c(C2=NOC(C)(CCl)C2)cc1NS(=O)(=O)C(F)(F)F (stereo not drawn) [Compound 226] | 90 | 100 | 0 | 70 | 90 | 40 | 30 | 60 | 30 | 90 | 30 | 80 | 20 | 60 | 30 | 60 | 80 | 10 | 70 | 90 | Foxtail, Giant plant response rating ([2]; 500 g ai/ha): 100; Kochia plant response rating (kochia (Bassia scoparia) [3]; 500 g ai/ha): 90; Ragweed plant response rating ([8]; 500 g ai/ha): 90; Ryegrass, Italian plant response rating ([11]; 500 g ai/ha): 100; Plant response rating, Wheat [12]: 0; Wheat plant response rating [12]: 60; Plant response rating, Pigweed [13, 15]: 80; Pigweed plant response rating ([13]; 500 g ai/ha): 100; Plant response rating, Blackgrass [14]: 20; Blackgrass plant response rating [14]: 50 |
| Cc1cc(C)c(C(=O)N2CCC(F)(F)C2)cc1NS(=O)(=O)C(F)(F)F [Compound 202] | 30 | 90 | 0 | 20 | 60 | 40 | 20 | 70 | 80 | 90 | 70 | 100 | 0 | 70 | 70 | 50 | 80 | 20 | 50 | 40 | Plant response rating, Foxtail, Giant ([2]; 500 g ai/ha): 70; Plant response rating, Kochia (kochia (Bassia scoparia) [3]; 500 g ai/ha): 80; Plant response rating, Ragweed ([8]; 500 g ai/ha): 90; Plant response rating, Ryegrass, Italian ([11]; 500 g ai/ha): 70; Plant response rating, Wheat [12]: 30; Wheat plant response rating [12]: 60; Plant response rating, Pigweed [13, 15]: 100; Plant response rating, Pigweed ([13]; 500 g ai/ha): 100; Plant response rating, Blackgrass [14]: 0; Blackgrass plant response rating [14]: 0 |
| Cc1cc(C)c(C2=NOC3(CCC3)C2)cc1NS(=O)(=O)C(F)(F)F [Compound 228] | 100 | 100 | 10 | 70 | 90 | 60 | 0 | 60 | 20 | 30 | 30 | 70 | 0 | 40 | 10 | 80 | 90 | 20 | 80 | 100 | Foxtail, Giant plant response rating ([2]; 500 g ai/ha): 100; Kochia plant response rating (kochia (Bassia scoparia) [3]; 500 g ai/ha): 90; Ragweed plant response rating ([8]; 500 g ai/ha): 70; Ryegrass, Italian plant response rating ([11]; 500 g ai/ha): 100; Plant response rating, Wheat [12]: 0; Wheat plant response rating [12]: 70; Plant response rating, Pigweed [13, 15]: 100; Pigweed plant response rating ([13]; 500 g ai/ha): 100; Plant response rating, Blackgrass [14]: 0; Blackgrass plant response rating [14]: 0 |
